In PubChem BioAssay (NCI):
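All cell lines were grown in 96-well plates and treated with compound for 48 hours. Here, GI50 denotes the concentration required for 50% inhibition of growth. At the TGI there is no net growth.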

Assays:
Assay in all cases: NCI anticancer screen, dose series, 48 h
[1] = test system: BT-549 breast
[2] = test system: SN12C renal
[3] = test system: SK-MEL-2 melanoma
[4] = test system: OVCAR-5 ovarian
[5] = test system: IGROV1 ovarian
[6] = test system: NCI-H226 lung
[7] = test system: MOLT-4 leukemia
[8] = test system: U251 CNS
[9] = test system: KM12 colon
[10] = test system: HOP-62 NSCLC
[11] = test system: HCT-116 colon
[12] = test system: NCI-H522 lung
[13] = test system: T-47D breast
[14] = test system: UACC-62 melanoma
[15] = test system: SNB-75 CNS
[16] = test system: SK-MEL-5 melanoma
[17] = test system: A549 NSCLC
[18] = test system: HCC-2998 colon
[19] = test system: LOX IMVI melanoma
[20] = test system: HS 578T breast
[21] = test system: SNB-19 CNS
[22] = test system: 786-0 renal
[23] = test system: HT29 colon
[24] = test system: SF-295 CNS
[25] = test system: MDA-MB-435
[26] = test system: MCF7 breast
[27] = test system: MALME-3M melanoma
[28] = test system: SK-MEL-28 melanoma
[29] = test system: SK-OV-3 ovarian
[30] = test system: TK-10 renal
[31] = test system: DU-145 prostate
[32] = test system: CCRF-CEM leukemia
[33] = test system: SW-620 colon
[34] = test system: SF-268 CNS
[35] = test system: RXF 393 renal
[36] = test system: MDA-MB-231 breast
[37] = test system: HCT-15 colon
[38] = test system: NCI/ADR-RES ovarian
[39] = test system: OVCAR-4 ovarian
[40] = test system: UO-31 renal
[41] = test system: HOP-92 NSCLC
[42] = test system: PC-3 prostate
[43] = test system: EKVX NSCLC
[44] = test system: OVCAR-8 ovarian
[45] = test system: K-562 leukemia
[46] = test system: A498 renal
[47] = test system: M14 melanoma
[48] = test system: UACC-257 melanoma
[49] = test system: ACHN renal
[50] = test system: COLO 205 colon
[51] = test system: SR leukemia
[52] = test system: CAKI-1 renal
[53] = test system: OVCAR-3 ovarian
[54] = test system: SF-539 CNS
[55] = test system: NCI-H460 lung
[56] = test system: RPMI-8226 leukemia

In the case of `COc1ccc(C2C(C#N)=C(N)Oc3c2sc2ccc(C)cc32)cc1` (configuration not stated), the GI50 [1] is reported as 2700 nM, the TGI [1] is reported as 7.68 µM and the GI50 [2] is reported as 4.46 µM. The TGI [2] was over 100 µM, the GI50 [3] was 2200 nM and the TGI [3] was 7.49 µM. For the same molecule, the GI50 [4] was 5.77 µM, the TGI [4] was over 100 µM and the GI50 [5] was 4.64 µM. For the same molecule, the TGI [5] was over 100 µM, the GI50 [6] was 3.92 µM and the TGI [6] was 57.5 µM. For the same molecule, the GI50 [7] was 3.63 µM, the TGI [7] was over 100 µM and the GI50 [8] was 3.78 µM. It also gave a TGI [8] of 27.5 µM, a GI50 [9] of 3.81 µM and a TGI [9] of over 100 µM. It also gave a GI50 [10] of 3.71 µM, a TGI [10] of 28.1 µM and a GI50 [11] of 3.68 µM. The TGI [11] was 83.9 µM, the GI50 [12] was 1240 nM and the TGI [12] was 4.48 µM. It also gave a GI50 [13] of 3.13 µM, a TGI [13] of over 100 µM and a GI50 [14] of 3.26 µM. For the same molecule, the TGI [14] was 49.9 µM, the GI50 [15] was 1900 nM and the TGI [15] was 5.51 µM. The GI50 [16] was 10.7 µM, the TGI [16] was over 100 µM and the GI50 [17] was 6.94 µM. It also gave a TGI [17] of over 100 µM, a GI50 [18] of 6.37 µM and a TGI [18] of over 100 µM. It also gave a GI50 [19] of 5.92 µM, a TGI [19] of over 100 µM and a GI50 [20] of 3.31 µM. The TGI [20] was 36.8 µM, the GI50 [21] was 6.01 µM and the TGI [21] was 86.7 µM. For the same molecule, the GI50 [22] was 3.64 µM, the TGI [22] was 15.1 µM and the GI50 [23] was 3.14 µM. The TGI [23] was 9.79 µM, the GI50 [24] was 3.93 µM and the TGI [24] was 28.6 µM. The GI50 [25] was 568 nM, the TGI [25] was 2170 nM and the GI50 [26] was 1250 nM. It also gave a TGI [26] of over 100 µM, a GI50 [27] of 3.56 µM and a TGI [27] of 62.3 µM. For the same molecule, the GI50 [28] was 5.86 µM, the TGI [28] was over 100 µM and the GI50 [29] was 5.2 µM. For the same molecule, the TGI [29] was 54.8 µM, the GI50 [30] was 23 µM and the TGI [30] was over 100 µM. It also gave a GI50 [31] of 7.08 µM, a TGI [31] of over 100 µM and a GI50 [32] of 3.78 µM. For the same molecule, the TGI [32] was over 100 µM, the GI50 [33] was 2810 nM and the TGI [33] was over 100 µM. It also gave a GI50 [34] of 5.24 µM, a TGI [34] of over 100 µM and a GI50 [35] of 2640 nM. The TGI [35] was 9.98 µM, the GI50 [36] was 9.6 µM and the TGI [36] was 86.7 µM. The GI50 [37] was 3.35 µM, the TGI [37] was over 100 µM and the GI50 [38] was 3.34 µM. It also gave a TGI [38] of over 100 µM, a GI50 [39] of 8.07 µM and a TGI [39] of over 100 µM. The GI50 [40] was 3.56 µM, the TGI [40] was over 100 µM and the GI50 [41] was 1050 nM. It also gave a TGI [41] of 7.07 µM, a GI50 [42] of 3.46 µM and a TGI [42] of over 100 µM. It also gave a GI50 [43] of 7.35 µM, a TGI [43] of over 100 µM and a GI50 [44] of 9.93 µM. It also gave a TGI [44] of over 100 µM, a GI50 [45] of 1560 nM and a TGI [45] of over 100 µM. It also gave a GI50 [46] of 47 µM, a TGI [46] of over 100 µM and a GI50 [47] of 2840 nM. It also gave a TGI [47] of 14.6 µM, a GI50 [48] of 4.03 µM and a TGI [48] of over 100 µM. The GI50 [49] was 6.44 µM, the TGI [49] was over 100 µM and the GI50 [50] was 3.7 µM. It also gave a TGI [50] of over 100 µM, a GI50 [51] of 2420 nM and a TGI [51] of over 100 µM. It also gave a GI50 [52] of 3.52 µM, a TGI [52] of 56.4 µM and a GI50 [53] of 3.71 µM. For the same molecule, the TGI [53] was over 100 µM, the GI50 [54] was 3.21 µM and the TGI [54] was 13.4 µM. The GI50 [55] was 3.41 µM, the TGI [55] was 18.3 µM and the GI50 [56] was 3.95 µM. For the same molecule, the TGI [56] was over 100 µM.
